Assay in all cases: NCI tumour cell line growth inhibition, 48 h
Assay [1] concerns NCI-H522 lung.
Assay [2] concerns NCI-H226 lung.
For assay [3], the system named is HCC-2998 colon.
Assay [4] concerns MDA-MB-231 breast.
In assay [5] the test system is A498 renal.
Assay [6] concerns SW-620 colon.
Assay [7] has as its system IGROV1 ovarian.
Assay [8] deals with CCRF-CEM leukemia.
The test system of assay [9] is MOLT-4 leukemia.
Assay [10] relates to SF-295 CNS.
In assay [11] the test system is HL-60(TB) leukemia.
In assay [12] the test system is ACHN renal.
Assay [13] concerns UACC-257 melanoma.
The subject of assay [14] is SR leukemia.
Assay [15] concerns MDA-N.
Assay [16] concerns OVCAR-8 ovarian.

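Test compounds were applied to cells in 96-well plates for 48 hours at 5 doses. Definition used: TGI = concentration required for complete inhibition of growth.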 Where only a bound is given, the exact number is not on record here.

This passage reports TGI results from PubChem BioAssay (NCI).

On to `C=C=C(CC1CCCCC1=O)S(=O)(=O)c1ccccc1` (stereo unspecified), for which the TGI in assay [1] is 6.71 µM; in assay [2] it was more than 10 µM; in assay [3], more than 10 µM; in assay [4], more than 10 µM; in assay [5], more than 10 µM; in assay [6], more than 9.53 µM. Besides, the TGI is more than 10 µM in [7]; 7.24 µM in [8]; 3.06 µM in [9]; more than 10 µM in assay [10]; 2.5 µM in assay [11]; more than 10 µM in [12]. In addition, the TGI in assay [13] is more than 10 µM; in assay [14] it was more than 6.03 µM; in [15] it was more than 10 µM; in assay [16], more than 10 µM.
For the compound `Cc1cc(S(=O)(=O)Nc2n[nH]c(Nc3ccc(Cl)cc3)n2)c(S)cc1Cl`, the TGI in assay [1], in assay [2], in assay [3], in assay [4], in assay [5] and in assay [6] was more than 100 µM in each case. Also, the TGI in [7], in assay [8], in [9], in [10], in assay [11] and in assay [12] was more than 100 µM throughout. Also, the TGI in assay [13], in assay [14], in assay [15] and in assay [16] was more than 100 µM in each case.
For the compound `N=C1OC(CN2CCN(c3ccccc3)CC2)CN1C(=S)Nc1ccccc1` (stereo unspecified), the TGI in [1], in assay [2], in [3], in [4], in assay [5] and in assay [6] was more than 100 µM each time. For the same compound, the TGI in assay [7], in assay [8], in [9], in assay [10], in assay [11] and in assay [12] was more than 100 µM each time. Also, the TGI in assay [13], in assay [14], in [15] and in assay [16] was more than 100 µM throughout.
With `Cc1cn([C@@H]2C[C@@H]2CO)c(=O)[nH]c1=O`, the TGI in assay [1], in assay [2], in assay [3], in assay [4], in assay [5] and in [6] was more than 100 µM throughout. Further, the TGI in assay [7], in assay [8], in [9], in assay [11], in assay [12] and in assay [13] was more than 100 µM in each case. Besides, the TGI in assay [14], in assay [15] and in assay [16] was more than 100 µM throughout.
In the case of `CC(C)OC(=O)c1ccc(CCC2=CC(=O)C=CC2=O)cc1`, the TGI is 4.02 µM in assay [1]; 33.5 µM in assay [2]; 32.6 µM in [3]; 23.2 µM in assay [4]; 45.3 µM in [5]; 19.1 µM in assay [6]. Also, the TGI came out at 27.5 µM in assay [7]; 10.9 µM in [8]; 8.05 µM in assay [9]; 90.9 µM in assay [10]; 7.56 µM in [11]; 18.8 µM in assay [12]. In addition, the TGI is 25.6 µM in assay [13], more than 25.3 µM in assay [14], 22.6 µM in assay [15] and 18.1 µM in assay [16].
Consider `O=c1c2cc(I)ccc2nc(SCc2nncs2)n1Cc1ccccc1`, for which the TGI in [1] is 61 µM; in assay [2] it was more than 100 µM; in assay [3] it was more than 100 µM; in assay [4], 76.7 µM; in [5], 65.1 µM; in assay [6] it was more than 100 µM. The TGI in [7] is 48.7 µM; in [8] it was 70.8 µM; in [9], more than 100 µM; in assay [10], more than 100 µM; in assay [11] it was more than 100 µM; in [12] it was more than 100 µM. Further, the TGI in assay [13], in assay [14], in [15] and in assay [16] was more than 100 µM in each case.
`CC(C)=CCC[C@]1(C)C=Cc2c(O)c3c(c(CC=C(C)C)c2O1)O[C@]12C(=C[C@@H]4CC1C(C)(C)O[C@@]2(C/C=C(/C)C(=O)O)C4=O)C3=O`: the TGI turned out to be 2.32 µM in assay [1]; 3.93 µM in [2]; 2.81 µM in assay [3]; 4.23 µM in assay [4]; 3.98 µM in assay [5]; 2.89 µM in assay [6]. Further, the TGI in assay [7] was determined as 2.81 µM; in [8] it was 1.45 µM; in [9], 1.8 µM; in assay [10], 10 µM; in assay [11], 0.706 µM; in assay [12] it was 1.37 µM. Further, the TGI was 6.8 µM in assay [13], 0.939 µM in [14], 4.59 µM in assay [15] and 4.19 µM in [16].
With `C[C@@H](c1ccccc1)n1c(N)c(-c2ccccn2)c2ccc([N+](=O)[O-])cc2c1=O`, the TGI in assay [1] was more than 100 µM; in assay [2] it was more than 100 µM; in assay [3], more than 100 µM; in assay [4], more than 100 µM; in assay [5] it was 65.5 µM; in assay [6] it was more than 100 µM. Besides, the TGI in assay [8], in [11], in [12], in [13], in assay [14] and in assay [15] was more than 100 µM throughout. The compound further showed a TGI in assay [16] of more than 100 µM.
On to `O=c1[nH]c(Cc2ccccc2)nc2c1sc1nc3ccccc3n12`, for which the TGI in [1], in [2], in assay [3], in [4], in [5] and in assay [6] was more than 100 µM throughout. In addition, the TGI in [7], in assay [8], in assay [9], in assay [10], in [11] and in assay [12] was more than 100 µM throughout. Also, the TGI in [13], in assay [14], in [15] and in assay [16] was more than 100 µM in each case.
For `CC1=CC(=O)CC(C)(C)C1/C=C/C(C)=C/C=C/C(C)=C/C=C/C=C(C)/C=C/C=C(C)/C=C/C1C(C)=CC(=O)CC1(C)C` (stereo unspecified), the TGI in [1] is 52.1 µM; in assay [2] it was more than 100 µM; in [3], more than 100 µM; in assay [4] it was more than 100 µM; in assay [5] it was more than 100 µM; in assay [6], more than 100 µM. Also, the TGI in assay [7], in assay [8], in assay [9], in [10], in assay [11] and in [12] was more than 100 µM in each case. Further, the TGI in assay [13] was more than 100 µM; in [14] it was more than 100 µM; in assay [15], more than 100 µM; in assay [16], 49 µM.
Consider `C=CCn1c(-c2ccc([N+](=O)[O-])cc2)cs/c1=N\C(P(=O)(O)O)P(=O)(O)O`, for which the TGI in assay [1], in assay [2], in assay [3], in assay [4], in [5] and in assay [6] was more than 100 µM each time. For the same compound, the TGI in [7] was more than 100 µM; in assay [8], more than 100 µM; in assay [9], more than 100 µM; in [10] it was more than 100 µM; in assay [11], 90.6 µM; in [12], more than 100 µM. In addition, the TGI in assay [13], in [14], in assay [15] and in assay [16] was more than 100 µM throughout.
Take `O=C(NC1(c2cc3ccccc3s2)CCCCC1)C1CCC1`: the TGI in assay [1], in assay [2], in [3], in assay [4], in [5] and in assay [6] was more than 100 µM each time. For the same compound, the TGI in [7], in [8], in assay [9], in assay [10], in [11] and in assay [12] was more than 100 µM throughout. For the same compound, the TGI in [13], in assay [14], in [15] and in [16] was more than 100 µM in each case.
Take `N#Cc1cc(C#N)c(N)nc1N`: the TGI in assay [1], in [2], in assay [3], in assay [4], in [5] and in assay [6] was more than 100 µM each time. The TGI in [7], in assay [8], in [9], in [10], in assay [11] and in [12] was more than 100 µM throughout. Besides, the TGI in assay [13], in [14], in assay [15] and in assay [16] was more than 100 µM in each case.
For the compound `C=C1C(=O)O[C@H]2C/C(C)=C/CC[C@@]3(C)O[C@](C)(CC[C@@H]3I)[C@@H](I)C[C@@H]12`, the TGI in [1] is 8.64 µM; in [2], 2.13 µM; in [3], 10.8 µM; in [4] it was 14.7 µM; in assay [5], 17.5 µM; in [6], 12.4 µM. Further, the TGI worked out at 6.62 µM in [7]; 13.3 µM in assay [8]; 13.6 µM in assay [9]; 15 µM in assay [10]; 20.2 µM in assay [11]; 13.6 µM in [12]. Further, the TGI in [13] amounted to 12.7 µM; in assay [14], 8.2 µM; in [15], 10.9 µM; in [16], 10.1 µM.
Regarding `C=CCN(c1cc(OCc2ccccc2)c2[nH]cc(C)c2c1)S(C)(=O)=O`, the TGI in assay [1] was more than 100 µM; in [2] it was more than 100 µM; in [3] it was more than 100 µM; in assay [4], more than 100 µM; in assay [5] it was 90.9 µM; in assay [6], more than 100 µM. Besides, the TGI in [7], in assay [8], in [9], in assay [10], in [11] and in assay [12] was more than 100 µM in each case. Also, the TGI in assay [13], in assay [14], in assay [15] and in assay [16] was more than 100 µM throughout.
With `Cc1nc(N)c(N2CCN(C(=O)O)CC2)c(=O)[nH]1`, the TGI in assay [1], in [2], in assay [3], in [4], in [5] and in assay [6] was more than 100 µM each time. Moreover, the TGI in [8], in assay [9], in assay [10], in [11], in [12] and in assay [13] was more than 100 µM each time. The TGI in assay [14], in [15] and in [16] was more than 100 µM in each case.
On to `CCc1ccccc1N=NC(=O)NNc1ccccc1CC`, for which the TGI in assay [1] amounted to 41.3 µM; in assay [2], 34.4 µM; in assay [3], 29.9 µM; in assay [4], 50.1 µM; in assay [5], 36.5 µM; in [6], 37.5 µM. Further, the TGI in assay [7] came to 26 µM; in [8], 65.6 µM; in [9] it was 50.1 µM; in [11], 56.9 µM; in [12], 54.6 µM; in [13], 36.1 µM. Further, the TGI in assay [14] came out at 57.1 µM; in [15] it was 33.2 µM; in [16], 32.8 µM.
Regarding `CC#CC(O)(C(=O)OCCCN(C)C)C1CCCCC1` (stereo unspecified), the TGI in assay [2], in assay [3], in assay [4], in assay [5], in [6] and in [7] was more than 100 µM each time. The TGI in [8], in assay [9], in assay [10], in assay [11], in assay [12] and in assay [13] was more than 100 µM each time. The TGI in [14], in [15] and in assay [16] was more than 100 µM each time.
